Target: Human CTSL (Homo sapiens, UniProt P07711)
Assay: FRET-based cleavage assay, enzymatic inhibition of human CTSL
Conditions: not given

Sequence of Human CTSL (P07711 114-333): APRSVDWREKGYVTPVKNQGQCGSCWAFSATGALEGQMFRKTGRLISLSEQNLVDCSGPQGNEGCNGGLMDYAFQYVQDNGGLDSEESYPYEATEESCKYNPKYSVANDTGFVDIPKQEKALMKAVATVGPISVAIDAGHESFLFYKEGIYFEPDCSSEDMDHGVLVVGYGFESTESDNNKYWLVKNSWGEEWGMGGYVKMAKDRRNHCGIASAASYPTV

In order of rising IC50:
1. O=C(N[C@@H](Cc1ccc(F)cc1)C(=O)N[C@H](/C=C/S(=O)(=O)c1ccccc1)C[C@@H]1CCCNC1=O)c1cc2ccccc2o1 [14c, N-((S)-3-(4-fluorophenyl)-1-oxo-1-(((S,E)-1-((S)-2-oxopiperidin-3-yl)-4-(phenylsulfonyl)but-3-en-2-yl)amino)propan-2-yl)benzofuran-2-carboxamide]  0.0503 ± 0.0121 µM
2. O=C(N[C@@H](Cc1ccc(F)cc1)C(=O)N[C@H](/C=N/NC(=O)C1CC1)C[C@@H]1CCCNC1=O)c1cc2ccccc2o1 [14g, N-((S)-1-(((S,E)-1-(2-(cyclopropanecarbonyl)hydrazineylidene)-3-((S)-2-oxopiperidin-3-yl)propan-2-yl)amino)-3-(4-fluorophenyl)-1-oxopropan-2-yl)benzofuran-2-carboxamide]  1.32 µM
3. O=C(N[C@@H](Cc1ccc(F)cc1)C(=O)N[C@H](/C=N/Nc1ncccn1)C[C@@H]1CCCNC1=O)c1cc2ccccc2o1 [14h, N-((S)-3-(4-fluorophenyl)-1-oxo-1-(((S,E)-1-((S)-2-oxopiperidin-3-yl)-3-(2-(pyrimidin-2-yl)hydrazineylidene)propan-2-yl)amino)propan-2-yl)benzofuran-2-carboxamide]  1.6 µM
4. CC1(C)[C@@H]2[C@@H](C(=O)N[C@@H](C[C@@H]3CCCNC3=O)C(=O)C(=O)NCc3ccccc3)N(C(=O)c3cc4ccccc4o3)C[C@@H]21 [14m, (1R,2S,5S)-3-(benzofuran-2-carbonyl)-N-((S)-4-(benzylamino)-3,4-dioxo-1-((S)-2-oxopiperidin-3-yl)butan-2-yl)-6,6-dimethyl-3-azabicyclo[3.1.0]hexane-2-carboxamide]  1.87 µM
5. O=C(O)/C(F)=C/[C@H](C[C@@H]1CCCNC1=O)NC(=O)[C@H](CC1CCCCC1)NC(=O)c1cc2ccccc2o1 [14i, (S,Z)-4-((S)-2-(benzofuran-2-carboxamido)-3-cyclohexylpropanamido)-2-fluoro-5-((S)-2-oxopiperidin-3-yl)pent-2-enoic acid]  2.16 µM
6. O=C(N/N=C/[C@H](C[C@@H]1CCCNC1=O)NC(=O)[C@H](Cc1ccc(F)cc1)NC(=O)c1cc2ccccc2o1)c1ccccc1 [14e, N-((S)-1-(((S,E)-1-(2-benzoylhydrazineylidene)-3-((S)-2-oxopiperidin-3-yl)propan-2-yl)amino)-3-(4-fluorophenyl)-1-oxopropan-2-yl)benzofuran-2-carboxamide]  3.94 µM
7. O=C(N[C@@H](Cc1ccc(F)cc1)C(=O)N[C@H](/C=N/NC(=O)C1CCCCC1)C[C@@H]1CCCNC1=O)c1cc2ccccc2o1 [14f, N-((S)-1-(((S,E)-1-(2-(cyclohexanecarbonyl)hydrazineylidene)-3-((S)-2-oxopiperidin-3-yl)propan-2-yl)amino)-3-(4-fluorophenyl)-1-oxopropan-2-yl)benzofuran-2-carboxamide]  8.53 µM

Same assay, conditions: read-out: IC50, enzymatic inhibitory activity against human CTSL; mean ± SD

Work on `O=C(N[C@@H](CC1C=CC=CC1)C(=O)N[C@H](/C=C/S(=O)(=O)c1ccccc1)C[C@@H]1CCCNC1=O)c1cc2ccccc2o1` (stereo partly drawn) [14d, N-((2S)-3-(cyclohexa-2,4-dien-1-yl)-1-oxo-1-(((S,E)-1-((S)-2-oxopiperidin-3-yl)-4-(phenylsulfonyl)but-3-en-2-yl)amino)propan-2-yl)benzofuran-2-carboxamide] yielded an IC50 of 0.0772 ± 0.012 µM.

Same assay, conditions: read-out: Inhibition rate against human CTSL

In order of rising inhibition at 1 µM:
1. O=C(NCc1ccccc1)C(=O)[C@H](C[C@@H]1CCCNC1=O)NC(=O)[C@@H]1[C@H]2CCC[C@H]2CN1C(=O)c1cc2ccccc2o1 [14l, (1S,3aR,6aS)-2-(benzofuran-2-carbonyl)-N-((S)-4-(benzylamino)-3,4-dioxo-1-((S)-2-oxopiperidin-3-yl)butan-2-yl)octahydrocyclopenta[c]pyrrole-1-carboxamide]  12%
2. CCOC(=O)/C(F)=C/[C@H](C[C@@H]1CCCNC1=O)NC(=O)[C@H](CC1CCCCC1)NC(=O)c1cc2ccccc2o1 [14j, Ethyl (S,Z)-4-((S)-2-(benzofuran-2-carboxamido)-3-cyclohexylpropanamido)-2-fluoro-5-((S)-2-oxopiperidin-3-yl)pent-2-enoate]  30%
3. O=C(NC1CC1)/C(F)=C/[C@H](C[C@@H]1CCCNC1=O)NC(=O)[C@H](CC1CCCCC1)NC(=O)c1cc2ccccc2o1 [14k, N-((S)-3-cyclohexyl-1-(((S,Z)-5-(cyclopropylamino)-4-fluoro-5-oxo-1-((S)-2-oxopiperidin-3-yl)pent-3-en-2-yl)amino)-1-oxopropan-2-yl)benzofuran-2-carboxamide]  37%
